What was measured:
Human PKK = biological target: T1, Human PKK (Homo sapiens, UniProt P03952); assay: Inhibition of PKK using an endpoint assay (human PKK); type: biochemical; conditions: fluorogenic substrate H-Pro-Phe-Arg-AMC, 1 h room temperature, method names human or rat PKK, table does not say which
T1 construct: purchased Enzyme Research Laboratories
Procedure, shortened: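 Human PKK inhibition measured in 100 mM Tris, 150 mM NaCl, pH 7.8, 0.1% BSA, 0.05% Tween20, 1% DMSO. Endpoint format: reaction stopped with PPACK II at 1 μM final, fluorescence read at 355 nm excitation/460 nm emission.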

[1] = biological target: T2, PKK in kaolin activated human platelet poor plasma (Homo sapiens, UniProt P03952); assay: Inhibition of PKK in kaolin activated human PPP; type: biochemical; conditions: 25-750 μg/mL kaolin, global fit, text b200 calls the values IC90;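 also: readout is the rate of fluorogenic substrate cleavage in rfu per min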
T2 construct: Platelet poor plasma (PPP) obtained from human wholeblood; from tissue
Procedure: Platelet poor plasma (PPP) obtained from human wholeblood, anticoagulated with Na-Citrate, is incubated with various concentrations of the test compound together with either 25, 75, 250, or 750 μg/mL kaolin in assay buffer for 20 min at 37° C. such that for each kaolin dose used a concentration response is obtained for the test compound.

T1 sequence (P03952 20-390 limits assumed): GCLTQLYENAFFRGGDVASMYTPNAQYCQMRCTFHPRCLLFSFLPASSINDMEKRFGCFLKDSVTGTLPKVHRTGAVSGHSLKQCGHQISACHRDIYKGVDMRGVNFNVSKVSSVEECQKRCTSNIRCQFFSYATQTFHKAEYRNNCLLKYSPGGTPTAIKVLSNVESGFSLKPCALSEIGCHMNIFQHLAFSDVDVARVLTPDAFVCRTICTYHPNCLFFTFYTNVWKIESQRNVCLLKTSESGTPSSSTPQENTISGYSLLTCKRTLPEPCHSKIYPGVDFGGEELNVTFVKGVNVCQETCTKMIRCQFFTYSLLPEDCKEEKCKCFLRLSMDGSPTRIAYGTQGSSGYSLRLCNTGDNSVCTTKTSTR
T1 sequence (P03952 391-638 limits assumed): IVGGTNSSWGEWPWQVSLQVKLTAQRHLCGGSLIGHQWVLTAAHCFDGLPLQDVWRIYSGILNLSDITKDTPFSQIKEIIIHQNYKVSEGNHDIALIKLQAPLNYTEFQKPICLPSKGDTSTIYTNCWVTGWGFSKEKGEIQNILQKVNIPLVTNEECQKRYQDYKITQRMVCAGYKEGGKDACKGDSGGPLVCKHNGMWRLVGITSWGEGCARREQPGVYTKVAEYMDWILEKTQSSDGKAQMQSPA
T2 sequence (P03952 391-638 limits assumed): as above
T2 sequence (P03952 20-390 limits assumed): as the sequence (P03952 20-390 limits assumed) above

Row | IC50 (Human PKK) | IC50 [1] | SMILES
1 | 0.6 nM | 166 nM | Cn1cnc2c1CC[C@H]2NC(=O)c1cn(Cc2ccc(N3CC4C(C3)C4(F)F)nc2Cl)cn1 (stereo partly drawn) [Example 57, 1-[(2-Chloro-6-{6,6-difluoro-3-azabicyclo[3.1.0]-hexan-3-yl}pyridin-3-yl)methyl]-N-[(4R)-1-methyl-1H,4H,5H,6H-cyclopenta[d]imidazol-4-yl]-1H-imidazole-4-carboxamide]
2 | 14 nM | 769 nM | Cn1cnc2c1CC[C@H]2NC(=O)c1cnn(Cc2cnc(N3CC4CC4C3)nc2CO)c1 (stereo partly drawn) [Example 62, 1-[(2-{3-Azabicyclo[3.1.0]hexan-3-yl}-4-(hydroxymethyl)-pyrimidin-5-yl)methyl]-N-[(4R)-1-methyl-1H,4H,5H,6H-cyclopenta[d]imidazol-4-yl]-1H-pyrazole-4-carboxamide]
3 | 3 nM | 203 nM | Cn1cnc2c1CC[C@H]2NC(=O)c1cn(Cc2ccc(N3CC4C(C3)C4(F)F)nc2)cn1 (stereo partly drawn) [Example 63, 1-[(6-{6,6-Difluoro-3-azabicyclo[3.1.0]hexan-3-yl}pyridin-3-yl)methyl]-N-[(4R)-1-methyl-1H,4H,5H,6H-cyclopenta[d]imidazol-4-yl]-1H-imidazole-4-carboxamide]
4 | 0.7 nM | 221 nM | Cn1cnc2c1CC[C@H]2NC(=O)c1cn(Cc2ccc(N3CC4CC4C3)nc2C(F)F)cn1 (stereo partly drawn) [Example 64, 1-[(6-{3-Azabicyclo[3.1.0]hexan-3-yl}-2-(difluoromethyl)-pyridin-3-yl)methyl]-N-[(4R)-1-methyl-1H,4H,5H,6H-cyclopenta[d]imidazol-4-yl]-1H-imidazole-4-carboxamide]
5 | 1.4 nM | 1230 nM | Cn1cnc2c1CC[C@H]2NC(=O)c1cnn(Cc2ccc(N3CC4CC4C3)nc2C(C)(C)C#N)c1 (stereo partly drawn) [Example 65, 1-[(6-{3-Azabicyclo[3.1.0]hexan-3-yl}-2-(1-cyano-1-methylethyl)pyridin-3-yl)methyl]-N-[(4R)-1-methyl-1H,4H,5H,6H-cyclopenta[d]-imidazol-4-yl]-1H-pyrazole-4-carboxamide]
6 | 0.7 nM | 839 nM | CCCc1nc(N2CC3C(C2)C3(F)F)ccc1Cn1cnc(C(=O)N[C@@H]2CCc3c2ncn3C)c1 (stereo partly drawn) [Example 66, 1-[(6-{6,6-Difluoro-3-azabicyclo[3.1.0]hexan-3-yl}-2-propylpyridin-3-yl)methyl]-N-[(4R)-1-methyl-1H,4H,5H,6H-cyclopenta[d]imidazol-4-yl]-1H-imidazole-4-carboxamide]
7 | 3.1 nM | 635 nM | Cn1cnc2c1CC[C@H]2NC(=O)c1cnn(Cc2ccc(N3CC4C(C3)C4(F)F)nc2C2CCC2)c1 (stereo partly drawn) [Example 67, 1-[(2-Cydobutyl-6-{6,6-difluoro-3-azabicyclo[3.1.0]hexan-3-yl}pyridin-3-yl)methyl]-N-[(4R)-1-methyl-1H,4H,5H,6H-cyclopenta[d]imidazol-4-yl]-1H-pyrazole-4-carboxamide]
8 | 1.4 nM | 637 nM | Cc1nc(N2CC3(CC3)C2)ccc1Cn1cc(C(=O)N[C@@H]2CCc3c2ncn3C)nn1 [Example 68, 1-[(6-{5-Azaspiro[2.3]hexan-5-yl}-2-methylpyridin-3-yl)-methyl]-N-[(4R)-1-methyl-1H,4H,5H,6H-cyclo-penta[d]imidazol-4-yl]-1H-1,2,3-triazole-4-carboxamide]
9 | 0.9 nM | 328 nM | CCCc1nc(N2CC3C(C2)C3(F)F)ccc1Cn1cc(C(=O)N[C@@H]2CCc3c2ncn3C)cn1 (stereo partly drawn) [Example 69, 1-[(6-{6,6-Difluoro-3-azabicyclo[3.1.0]hexan-3-yl}-2-propylpyridin-3-yl)methyl]-N-[(4R)-1-methyl-1H,4H,5H,6H-cyclopenta[d]imidazol-4-yl]-1H-pyrazole-4-carboxamide]
10 | 0.8 nM | 797 nM | Cc1nc(N2CC3CC3C2)ccc1Cn1cc(C(=O)N[C@@H]2CCc3c2ncn3C)c(C#N)n1 (stereo partly drawn) [Example 70, 1-[(6-{3-Azabicyclo[3.1.0]hexan-3-yl}-2-methylpyridin-3-yl)methyl]-3-cyano-N-[(4R)-1-methyl-1H,4H,5H,6H-cyclopenta[d]imidazol-4-yl]-1H-pyrazole-4-carboxamide]
11 | 151 nM | 9310 nM | Cn1cnc2c1CC[C@H]2NC(=O)c1cnn(Cc2ncc(N3CC4CC4C3)cn2)c1 (stereo partly drawn) [Example 71, 1-[(5-{3-Azabicyclo[3.1.0]hexan-3-yl}pyrimidin-2-yl)methyl]-N-[(4R)-1-methyl-1H,4H,5H,6H-cyclopenta[d]imidazol-4-yl]-1H-pyrazole-4-carboxamide]
12 | 3.3 nM | 831 nM | Cn1cnc2c1CC[C@H]2NC(=O)c1cn(Cc2ccc(N3CC4CC4C3)nc2)cn1 (stereo partly drawn) [Example 72, 1-[(6-{3-Azabicyclo[3.1.0]hexan-3-yl}pyridin-3-yl)methyl]-N-[(4R)-1-methyl-1H,4H,5H,6H-cyclopenta[d]imidazol-4-yl]-1H-imidazole-4-carboxamide]
13 | 9.6 nM | 498 nM | Cn1cnc2c1CC[C@H]2NC(=O)c1cnn(Cc2ccc(N3CC4(CC4)C3)nc2)c1 [Example 73, 1-[(6-{5-Azaspiro[2.3]hexan-5-yl}pyridin-3-yl)-methyl]-N-[(4R)-1-methyl-1H,4H,5H,6H-cyclopenta[d]imidazol-4-yl]-1H-pyrazole-4-carboxamide]
14 | 6.9 nM | 321 nM | Cn1cnc2c1CC[C@H]2NC(=O)c1cn(Cc2ccc(N3CC4(CC4)C3)nc2)cn1 [Example 74, 1-[(6-{5-Azaspiro[2.3]hexan-5-yl}pyridin-3-yl)-methyl]-N-[(4R)-1-methyl-1H,4H,5H,6H-cyclopenta[d]imidazol-4-yl]-1H-imidazole-4-carboxamide]
15 | 0.6 nM | 270 nM | CCc1nc(N2CC3C(C2)C3(F)F)ccc1Cn1cnc(C(=O)N[C@@H]2CCc3c2ncn3C)c1 (stereo partly drawn) [Example 76, 1-[(6-{6,6-Difluoro-3-azabicyclo[3.1.0]hexan-3-yl}-2-ethylpyridin-3-yl)methyl]-N-[(4R)-1-methyl-1H,4H,5H,6H-cyclopenta[d]imidazol-4-yl]-1H-imidazole-4-carboxamide]
16 | 3.3 nM | 197 nM | COCc1nc(N2CC3(CC3)C2)ccc1Cn1cnc(C(=O)N[C@@H]2CCc3c2ncn3C)c1 [Example 77, 1-[(6-{5-Azaspiro[2.3]hexan-5-yl}-2-(methoxymethyl)-pyridin-3-yl)methyl]-N-[(4R)-1-methyl-1H,4H,5H,6H-cyclopenta[d]imidazol-4-yl]-1H-imidazole-4-carboxamide]
17 | 6.8 nM | 317 nM | COCc1nc(N2CC3(CC3)C2)ccc1Cn1cc(C(=O)N[C@@H]2CCc3c2ncn3C)cn1 [Example 78, 1-[(6-{5-Azaspiro[2.3]hexan-5-yl}-2-(methoxymethyl)-pyridin-3-yl)methyl]-N-[(4R)-1-methyl-1H,4H,5H,6H-cyclopenta[d]imidazol-4-yl]-1H-pyrazole-4-carboxamide]
18 | 5.5 nM | 249 nM | Cn1cnc2c1CC[C@H]2NC(=O)c1cnn(Cc2ccc(N3CC4(CC4)C3)nc2CO)c1 [Example 79, 1-[(6-{5-Azaspiro[2.3]hexan-5-yl}-2-(hydroxymethyl)-pyridin-3-yl)methyl]-N-[(4R)-1-methyl-1H,4H,5H,6H-cyclopenta[d]imidazol-4-yl]-1H-pyrazole-4-carboxamide]
19 | 1.3 nM | 117 nM | Cn1cnc2c1CC[C@H]2NC(=O)c1cnn(Cc2ccc(N3CC4CC4C3)nc2CC#N)c1 (stereo partly drawn) [Example 81, 1-[(6-{3-Azabicyclo[3.1.0]hexan-3-yl}-2-(cyanomethyl)-pyridin-3-yl)methyl]-N-[(4R)-1-methyl-1H,4H,5H,6H-cyclopenta[d]imidazol-4-yl]-1H-pyrazole-4-carboxamide]
20 | 0.8 nM | 117 nM | C[C@@H](O)c1nc(N2CC3CC3C2)ccc1Cn1cc(C(=O)N[C@@H]2CCc3c2ncn3C)cn1 (stereo partly drawn) [Example 82, 1-[(6-{3-Azabicyclo[3.1.0]hexan-3-yl}-2-[(1R)-1-hydroxy-ethyl]pyridin-3-yl)methyl]-N-[(4R)-1-methyl-1H,4H,5H,6H-cyclopenta[d]imidazol-4-yl]-1H-pyrazole-4-carboxamide]
21 | 1.7 nM | 594 nM | C[C@H](O)c1nc(N2CC3CC3C2)ccc1Cn1cc(C(=O)N[C@@H]2CCc3c2ncn3C)cn1 (stereo partly drawn) [Example 83, 1-[(6-{3-Azabicyclo[3.1.0]hexan-3-yl}-2-[(1S)-1-hydroxy-ethyl]pyridin-3-yl)methyl]-N-[(4R)-1-methyl-1H,4H,5H,6H-cyclopenta[d]imidazol-4-yl]-1H-pyrazole-4-carboxamide]
22 | 0.7 nM | 209 nM | Cn1cnc2c1CC[C@H]2NC(=O)c1cnn(Cc2ccc(N3CC4CC4C3)nc2C(C)(C)O)c1 (stereo partly drawn) [Example 84, 1-[(6-{3-Azabicyclo[3.1.0]hexan-3-yl}-2-(2-hydroxypropan-2-yl)pyridin-3-yl)methyl]-N-[(4R)-1-methyl-1H,4H,5H,6H-cyclopenta[d]imidazol-4-yl]-1H-pyrazole-4-carboxamide]
23 | 0.8 nM | 132 nM | Cn1cnc2c1CC[C@H]2NC(=O)c1cnn(Cc2ccc(N3CC4CC4C3)nc2CCO)c1 (stereo partly drawn) [Example 85, 1-[(6-{3-Azabicyclo[3.1.0]hexan-3-yl}-2-(2-hydroxyethyl)-pyridin-3-yl)methyl]-N-[(4R)-1-methyl-1H,4H,5H,6H-cyclopenta[d]imidazol-4-yl]-1H-pyrazole-4-carboxamide]
24 | 3.3 nM | 177 nM | Cn1cnc2c1CC[C@H]2NC(=O)c1cn(Cc2ccc(N3CC4(CC4)C3)nc2CO)cn1 [Example 87, 1-[(6-{5-Azaspiro[2.3]hexan-5-yl}-2-(hydroxymethyl)-pyridin-3-yl)methyl]-N-[(4R)-1-methyl-1H,4H,5H,6H-cyclopenta[d]imidazol-4-yl]-1H-imidazole-4-carboxamide]

— patent US12479827B2, “Heteroaromatic carboxamide derivatives as plasma kallikrein inhibitors” (Boehringer Ingelheim International GmbH, priority 2020, dated 2025)
